Measured values as given in patent publication EP2386565A2, “Compounds and methods to inhibit or augment an inflammatory response” (Cambridge Enterprise Ltd., priority 1999, dated 2000).
Positions of bridges follow the written chain, without caps; N, C: chain ends. Non-standard residues stand in square brackets, D forms with d. Residues, ends and D or L forms follow the SMILES beside them.

Experiments:
[1] = Serum half-life of glucose conjugate after s.c. injection; format: in vivo, rats; conditions: unmodified peptide, comparison value
Protocol: To determine whether sugar conjugates of an agent of the invention had increased plasma half-lives, a glucose conjugate of CRD-Leu4Ile11Cys13 peptide 3(3-12)[MCP-1] was prepared and administered to rats. The conjugate was synthesized by mixing D-glucose (50 mM) and CRD-Leu4Ile11Cys13 peptide 3(3-12)[MCP-1] (1 mM) in phosphate buffered saline and incubating at room temperature for 16 hours. The reaction mixture was then subject to analytical HPLC which indicated a yield of about 30%. The material was then treated with cyanoborohydride to effect reduction of the schiffs base linkage and stabilize the glucosides for purification. The stabilized glucosides were then subjected to preparative HPLC and the mono- and di-substituted glucosides prepared separately. The monoglucoside was obtained at >90% purity in approximately 10% yield, and it is likely that the material is a mixture of Lys5-glucoside and Lys-7 glucoside.
The CRD-Leu4Ile11Cys13 peptide 3(3-12)[MCP-1] monoglucoside was injected into 3 rats (5 mg per rat via s.c. route in sterile PBS). Blood samples were withdrawn through an i.v. cannula at various time points, and CRD-Leu4Ile11Cys13 peptide 3(3-12)[MCP-1] glucoside was quantitated in the serum.

[2] = molecular target: T1, 5-HT1a serotonin receptors (Homo sapiens, UniProt P08908); assay: Competition of 3H-8-OH-DPAT binding to membranes; conditions: 100 µM highest concentration tested
T1 construct: purchased RBI/Sigma S-160; host or cells: membranes
T1 sequence (P08908 whole entry): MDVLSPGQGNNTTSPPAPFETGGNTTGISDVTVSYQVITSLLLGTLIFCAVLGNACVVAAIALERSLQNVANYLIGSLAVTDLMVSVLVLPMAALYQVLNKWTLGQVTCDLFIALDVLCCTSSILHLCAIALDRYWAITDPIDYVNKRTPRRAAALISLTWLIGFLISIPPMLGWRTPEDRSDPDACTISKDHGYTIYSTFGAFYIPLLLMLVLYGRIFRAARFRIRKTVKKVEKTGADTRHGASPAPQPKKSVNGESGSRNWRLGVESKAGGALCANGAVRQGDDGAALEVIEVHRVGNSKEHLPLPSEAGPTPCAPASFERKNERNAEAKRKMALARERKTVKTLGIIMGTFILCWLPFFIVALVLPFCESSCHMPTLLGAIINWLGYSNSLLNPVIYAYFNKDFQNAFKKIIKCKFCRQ
Protocol: For SHT1a serotonin receptors, membranes (S-160, RBI/Sigma) are diluted into binding buffer (50 mM Tris pH 7.4 10 mM MgCl2 and 0.5 mM EDTA, with ascorbate at 1 mg/ml added immediately before use), e.g., 10 µl of membranes in 500 µl assay volume (i.e., 1:50 dilution). Cold competitor or test competitor is then added, e.g., 5 µl of 100x stock solution such as 5 µl of 1 mM oxymetazoline. Radioligand (^3H-8-OH-DPAT, TRK850, Amersham, 250 µCi in 250 µl; 4.5 µM at 222 Ci/mmol) is then added. For competition studies, ligand is employed (e.g., a 100x stock (i.e., 150 nM) is prepared by diluting the commercial stock 1:30 in binding buffer). Control tubes are prepared which have radioligand but no membranes. The tubes are vortexed then spun briefly. The mixtures are incubated for 1 hour at 4°C. The mixtures are filtered through GF/C filters pre-soaked in polyethyleneimine (0.3% in MilliQ water). The tubes are washed with 2-3 ml of wash buffer and filtered. The filter is washed with 3 x 5 ml of wash buffer, and air dried. 4.5 ml of scintillant is added to the dried filter in a scintillation vial and the filter counted on a tritium channel.

[3] = system: MCP-1- and LPS-induced dermal inflammation; assay: Dermal inflammation model (intradermal MCP-1 / LPS); format: in vivo, rat; conditions: for MCP-1 induced recruitment of monocyte/macrophages in skin (in words): systemic treatment before intradermal MCP-1
Protocol: To assess the efficacy of an agent of the invention in the prevention of lipopolysaccharide (LPS)- and MCP-1-induced dermal inflammation in the rat, three different doses of CRD-Leu4Ile11Cys13peptide 3(3-12)[MCP-1] were administered. An inflammatory response was elicited by intradermal injection (ventral abdomen) of either 500 ng MCP-1 or 100 ng MCP-1 along with endotoxin-free phosphate-buffered saline vehicle (as a negative control) and bacterial lipopolysaccharide (LPS; as a positive control). Each substance was injected at a different site. The results obtained from animals were compared to CRD-Leu4Ile11Cys13 peptide 3(3-12)[MCP-1] treated, and PBS (diluent control) treated, animals. Thirty minutes prior to intradermal agonist administration, the animals received an intravenous loading dose (3, 30 or 300 mg) and a subcutaneous depot dose (0.1, 1 or 10 mg) (on dorsum) of the pan-chemokine inhibitor CRD-Leu4Ile11Cys13peptide 3(3-12)[MCP-1] (see, for example, Figure 12). Animals were sacrificed at 20-24 hours post injection. Serum and urine were collected. The intradermal sites of agonist injection were collected, bisected and the extent of the inflammatory response was assessed by histopathology and quantitative immunofluorescence (fixed and frozen) (for example, following MCP-1 injection, the number of monocyte/macrophages in the skin was determined using the anti-CD14 (MCA342 from Serotec; clone ED2) at 3 µg/ml overnight at 4°C. The second antibody was rat anti-mouse FITC (415-096-100 from Jackson ImmunoResearch) at 28 µg/ml for 6 hours at room temperature). In addition, toxicity of CRD-Leu4Ile11Cys13peptide 3(3-12)[MCP-1] was assessed by collection of the following tissue samples in 10% neutral buffered formalin for histologic analysis: lung, liver, kidney, spleen, thymus, heart, and antagonist (test agent) injection site.
Although MCP-1 is fairly specific as a monocyte/macrophage chemoattractant, dermal injection of LPS induces recruitment of a broader range of leukocytes, including T- and B-cells and neutrophils. Specific antibodies to rat B-cells (MCA 1432 from Serotec) were used at 10 µg/ml overnight at 4°C to determine whether CRD-Leu4Ile11Cys13 peptide 3(3-12)[MCP-1] affected the recruitment of this leukocyte subpopulation. Secondary antibody was anti-mouse FITC (415-096-100 from Jackson ImmunoResearch, as above).
(10 mg in 200 µl subcutaneous). Thirty minutes later, PBS, 50 ng LPS and 500 ng MCP-1 were injected into three separate sites on the ventral abdomen of each rat. Animals were sacrificed 24 hours later and the intradermal site was excised, and frozen in OCT embedding media. Five µm sections were collected from each rat intradermal site and stored at -20°C. The number of monocytes (anti-rat CD14, Serotec), T cells, neutrophils (anti-rat granulocytes, Harlan Seralab), B-lymphocytes (anti-rat B cells, Serotec), and MCP-1, IL-8, and TNF-α (anti-mouse TNF-α, R and D Systems) were measured. Eight test sections and two control sections were stained at each site for each animal through a distance of 2.5 mm. The median percentage area was determined for each animal and for each group using NIH image, as the largest variability of staining was between sections rather than in any one section.

## CC[C@@H](C)[C@H]1NC(=O)[C@@H](CCC(N)=O)NC(=O)[C@H](N)CSSC[C@H](C(N)=O)NC(=O)[C@@H](CC(C)C)NC(=O)[C@@H](CC(=O)O)NC(=O)[C@H]2CCCN2C(=O)[C@@H](CCCCN)NC(=O)[C@@H](CCC(N)=O)NC(=O)[C@@H](CCCCN)NC(=O)[C@@H](Cc2c[nH]c3ccccc23)NC1=O (H-[dC][dQ][dI][dW][dK][dQ][dK][dP][dD][dL][dC]-NH2; disulfide 1-11)
[1]
  T1/2α: 15 min
[2]
  ED50 for competition of 8-OH-DPAT binding to 5-HT1a receptors: >100 µM
[3]; 10 mg subcutaneous, 50 ng LPS
  TNF-α, IL-8 and MCP-1 at the LPS intradermal site (in words): substantially reduced
  median percentage area stained for neutrophils, monocytes, CD4+ T lymphocytes and B-lymphocytes at the LPS site (in words): abolished
[3]; rat, in vivo
  recruitment of B-cells to the site of the LPS injection (in words): substantially inhibited
  reduction in the number of monocyte/macrophages recruited in response to injected bacterial LPS: > 80%
[3]
  MCP-1 induced recruitment of monocyte/macrophages in skin (in words): completely abolished
[3]; listed as CRD-Leu4Ile11Cys13peptide 3(3-12)
  MCP-1 induced recruitment of monocyte/macrophages in skin (in words): the inflammatory response is abolished
